US9446081B2, “Pharmaceutical composition for preventing and treating complications of diabetes containing a traditional oriental medicine extract or a fraction thereof as an active ingredient” (KOREA INSTITUTE OF ORIENTAL MEDICINE, priority 2011, dated 2016)

Assays:
[1] = test system: spontaneous diabetic Torii (SDT) rats; assay: Inhibition of diabetic retinopathy in type II diabetic animal model; assay type: in vivo, rat; conditions: oral once a day 16 weeks, metformin 350 mg/kg
Method: (§1) To investigate the effect of the extract of Homonoia riparia Lour. on the prevention and treatment of diabetic complications in spontaneous diabetic Torii (SDT) rats, the type II diabetic animal model, the extract of Homonoia riparia Lour. was orally administered to the animal for 16 weeks. 10-week old male SDT rats (CLEA Japan Inc., Tokyo, Japan) were adapted for 1 week, and then continued to raise for 15 weeks until the blood sugar level reached 300 mg/dl. Feed and water were provided freely. 15 weeks later, the rats were grouped into 5 group (8 rats per group), to which the extract of Homonoia riparia Lour. (HR) and the control drug MET were administered orally once a day. The experimental groups included the normal group (NOR), the diabetic group (DM), the metformin (350 mg/kg) treated diabetic group (MET), the Homonoia riparia Lour. extract (100 mg/kg) treated diabetic group (HR-100), and the Homonoia riparia Lour. extract (250 mg/kg) treated diabetic group (HR-250). Each group was administered with the test samples orally once a day for 16 weeks. Urine was picked up 24 hours before autopsy. The organs extracted by autopsy were stored at −80° C.
When hyperglycemic state continues, retinal vessels in eyeball become mal-functioning to cause blood-retinal barrier breakage. […]

[2] = test system: spontaneous diabetic Torii (SDT) rats; assay: Diabetic nephropathy in type II diabetic animal model; assay type: in vivo, rat; conditions: oral once a day 16 weeks
Method: as §1
To investigate the effect of the extract of Homonoia riparia Lour. on the functions of the kidney suffering from chronic diabetes, urine was taken from the animal model 24 hours before the autopsy, with which renal indices {proteinuria, albuminuria, and glomerular filtration rate (Ccr)}, and glycation products (AGES and CML) were quantified. ELISA was performed to measure proteinuria, albuminuria, glomerular filtration rate, AGEs, CML, and podocyte (synaptopodin and WT-1). Particularly, the urine sample was mixed with coating buffer (50 mM carbonate buffer, pH 9.6) to make the final volume to be 100 μl (1:2), which was distributed in a 96-well plate. The plate stood at 37° C. for 3 hours and then washed with 0.05% PBST three times, followed by blocking with 3% skim milk. The plate stood as it was for 1 more hour and then washed. AGEs (Transgenic, JAPAN), CML (Transgenic, JAPAN), albumin, synaptopodin, and WT-1 (Santa Cruz, USA) antibodies were diluted respectively at the ratio of 1:1000, which were loaded in each well of the plate by 100 μl. The plate stood at 37° C. for 2 hours, and washed with 0.05% PBST. HRP-conjugated secondary antibody was loaded in each well of the plate by 100 μl, followed by reacting at 37° C. for 1 hour. 100 μl of the substrate, 3,3′,5,5′-tetramethylbenzidine (TMB) in 0.05% PBST was added to each well of the plate. 5 minutes later, the reaction was terminated by adding 1M H2SO4 solution (100 μl/well). Then OD was measured with an ELISA reader.
Immunological staining was performed as follows. After deparaffinization and hydration, the slide was reacted in 3% H2O2 solution for 10 minutes to deactivate endogenous peroxidase activity therein. Then, the slide was washed with PBS containing 0.05% tween 20 three times. To eliminate non-specific reaction, the slide was blocked with 5% AFB (animal free bock). The primary antibodies AGEs (Transgenic, Japan) and CML (Transgenic, Japan) were diluted (1:1000) and treated to the slide for 1 hour or overnight. After washing with PBS for 1 hour, the slide was treated with labeled streptavidin biotin (LSAB) kit (Dako, USA), followed by color development by using DAB (Dako, USA). Observation was performed under optical microscope.
The kidney was extracted from the animal model during the autopsy, which was fixed in 10% neutralized formalin for overnight. […]

[3] = extract 100 or 250 mg/kg, metformin 350 mg/kg, vs diabetic group (DM), FIG. 6

CN(C)C(=N)N=C(N)N [metformin]
blood-retinal barrier breakage (fluorescein-dextran flown out of retinal vessels, non-perfusion area) ([1]; extract 100 or 250 mg/kg (HR-100, HR-250), FIG. 2): fluorescent material was merely observed
pericyte loss, acellular capillary formation and closed vessels in retina ([1]; extract 100 or 250 mg/kg, vs diabetic group, FIG. 3): significantly decreased
glomerular hypertrophy and mesangial matrix expansion / morphological changes (PAS staining) ([2]; extract 100 or 250 mg/kg dose-dependently, metformin 350 mg/kg (not so significant), FIG. 9): decreased
AGEs and CML in urine ([2]; extract 100 or 250 mg/kg, metformin 350 mg/kg, FIG. 7): not much reduced
albuminuria [2, 3]: significantly reduced
proteinuria [2, 3]: higher
collagen deposition in glomerulus (Masson's trichrome staining) ([2]; extract 100 or 250 mg/kg, metformin 350 mg/kg, vs diabetic group (DM), FIG. 10): not much different
